# In ChEMBL document CHEMBL3046079, “Synthesis, herbicidal activity, and mode of action of IR 5790” (J Agric Food Chem, 2001):
# Assays:
# Oryza sativa [1] = experiment: Phytotoxicity against Oryza sativa (rice) assessed as injury at 150 g/ha applied as post-emergent treatment at 15 days post-sowing measured after 15 days relative to control; assay type: organism-based; settings: in vivo, other, 360 h
# Geranium dissectum = experiment: Pre-emergence herbicidal activity against Geranium dissectum assessed as injury at 50 g/ha applied at 24 hr post-sowing measured after 28 days relative to control; assay type: functional
# Calystegia sepium = experiment: Pre-emergence herbicidal activity against Calystegia sepium assessed as injury at 50 g/ha applied at 24 hr post-sowing measured after 28 days relative to control; assay type: functional
# Zea mays = experiment: Phytotoxicity against Zea mays (maize) assessed as injury at 150 g/ha applied as pre-emergent treatment at 24 hr post-sowing measured after 28 days relative to control; assay type: organism-based; settings: in vivo, other, 672 h
# Phalaris arundinacea = experiment: Pre-emergence herbicidal activity against Phalaris arundinacea assessed as injury at 150 g/ha applied at 24 hr post-sowing measured after 28 days relative to control; assay type: functional
# Beta vulgaris = experiment: Phytotoxicity against Beta vulgaris assessed as injury at 50 g/ha applied as pre-emergent treatment at 24 hr post-sowing measured after 28 days relative to control; assay type: organism-based; settings: in vivo, other, 672 h
# Brassica napus = experiment: Phytotoxicity against Brassica napus (oilseed rape) assessed as injury at 50 g/ha applied as pre-emergent treatment at 24 hr post-sowing measured after 28 days relative to control; assay type: organism-based; settings: in vivo, other, 672 h
# Veronica persica = experiment: Pre-emergence herbicidal activity against Veronica persica assessed as injury at 50 g/ha applied at 24 hr post-sowing measured after 28 days relative to control; assay type: functional
# Papaver rhoeas = experiment: Post-emergence herbicidal activity against Papaver rhoeas assessed as injury at 150 g/ha applied at 15 days post-sowing measured after 15 days relative to control; assay type: functional
# Portulaca oleracea = experiment: Post-emergence herbicidal activity against Portulaca oleracea assessed as injury at 5 g/ha applied at 15 days post-sowing measured after 15 days relative to control; assay type: functional
# Triticum aestivum = experiment: Phytotoxicity against Triticum aestivum (wheat) assessed as injury at 15 g/ha applied as post-emergent treatment at 15 days post-sowing measured after 15 days relative to control; assay type: organism-based; settings: in vivo, other, 360 h
# Glycine max = experiment: Phytotoxicity against Glycine max (soybean) assessed as injury at 15 g/ha applied as post-emergent treatment at 15 days post-sowing measured after 15 days relative to control; assay type: organism-based; settings: in vivo, other, 360 h
# Oryza sativa [2] = experiment: Phytotoxicity against Oryza sativa (rice) assessed as injury at 15 g/ha applied as post-emergent treatment at 15 days post-sowing measured after 15 days relative to control; assay type: organism-based; settings: in vivo, other, 360 h
# Chenopodium album = experiment: Post-emergence herbicidal activity against Chenopodium album assessed as injury at 15 g/ha applied at 15 days post-sowing measured after 15 days relative to control; assay type: functional
# Oryza sativa [3] = experiment: Phytotoxicity against Oryza sativa (rice) assessed as injury at 50 g/ha applied as post-emergent treatment at 15 days post-sowing measured after 15 days relative to control; assay type: organism-based; settings: in vivo, other, 360 h
# Capsella bursa-pastoris = experiment: Pre-emergence herbicidal activity against Capsella bursa-pastoris assessed as injury at 150 g/ha applied at 24 hr post-sowing measured after 28 days relative to control; assay type: functional
smiles,measurement,setting,value
C#CCOc1cc(-n2nc(C(C)(C)C)sc2=O)c(Cl)cc1Cl,Activity,Oryza sativa [1],0%
same,Activity,Geranium dissectum,0%
same,Activity,Calystegia sepium,0%
same,Activity,Zea mays,0%
same,Activity,Phalaris arundinacea,0%
same,Activity,Beta vulgaris,10%
same,Activity,Brassica napus,0%
same,Activity,Veronica persica,30%
same,Activity,Papaver rhoeas,30%
same,Activity,Portulaca oleracea,50%
same,Activity,Triticum aestivum,0%
same,Activity,Glycine max,0%
same,Activity,Oryza sativa [2],0%
same,Activity,Chenopodium album,70%
same,Activity,Oryza sativa [3],0%
same,Activity,Capsella bursa-pastoris,90%
